In PMC6430017, “Structural and chemical insights into the covalent-allosteric inhibition of the protein kinase Akt” (Chemical Science, 2019) one finds inhibition data, which are given here for three compounds.

By inhibition is commonly meant the drop in the measured response relative to a control, in per cent.

Some targets named below: ABL1 (Homo sapiens, UniProt P00519); KIT (Homo sapiens, UniProt P10721); PRKCA (PKC alpha) (Homo sapiens, UniProt P17252); SRC (Homo sapiens, UniProt P12931); NTRK2 (TRKB) (Homo sapiens, UniProt Q16620); MET (cMet) (Homo sapiens, UniProt P08581); CDK1/cyclin B (Homo sapiens, UniProt P06493); AMPK A1/B1/G1 (Homo sapiens, UniProt Q13131); BTK (Homo sapiens, UniProt Q06187).
Holding throughout (test): SelectScreen Z'LYTE kinase profiling
What all share (format): biochemical
What all share (conditions): ATP at apparent KM

The next assay concerns the target T1, ACVR1B (ALK4) (Homo sapiens, UniProt P36896).
T1 sequence (P36896 24-505): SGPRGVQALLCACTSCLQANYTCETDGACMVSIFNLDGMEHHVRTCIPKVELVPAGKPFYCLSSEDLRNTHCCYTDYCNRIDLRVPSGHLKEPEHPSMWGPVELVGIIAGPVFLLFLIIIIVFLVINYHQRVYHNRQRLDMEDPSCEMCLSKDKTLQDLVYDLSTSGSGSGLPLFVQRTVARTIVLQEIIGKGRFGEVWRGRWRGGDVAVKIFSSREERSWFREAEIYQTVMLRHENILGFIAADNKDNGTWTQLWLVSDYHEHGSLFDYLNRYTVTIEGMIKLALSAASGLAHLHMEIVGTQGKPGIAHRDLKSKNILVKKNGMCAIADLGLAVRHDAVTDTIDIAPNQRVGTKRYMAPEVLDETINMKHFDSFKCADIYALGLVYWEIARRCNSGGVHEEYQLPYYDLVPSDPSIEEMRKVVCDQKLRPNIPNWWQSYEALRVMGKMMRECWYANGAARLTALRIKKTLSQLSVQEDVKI

For another assay, the target named is T2, TBK1 (Homo sapiens, UniProt Q9UHD2).
T2 sequence (Q9UHD2 1-729): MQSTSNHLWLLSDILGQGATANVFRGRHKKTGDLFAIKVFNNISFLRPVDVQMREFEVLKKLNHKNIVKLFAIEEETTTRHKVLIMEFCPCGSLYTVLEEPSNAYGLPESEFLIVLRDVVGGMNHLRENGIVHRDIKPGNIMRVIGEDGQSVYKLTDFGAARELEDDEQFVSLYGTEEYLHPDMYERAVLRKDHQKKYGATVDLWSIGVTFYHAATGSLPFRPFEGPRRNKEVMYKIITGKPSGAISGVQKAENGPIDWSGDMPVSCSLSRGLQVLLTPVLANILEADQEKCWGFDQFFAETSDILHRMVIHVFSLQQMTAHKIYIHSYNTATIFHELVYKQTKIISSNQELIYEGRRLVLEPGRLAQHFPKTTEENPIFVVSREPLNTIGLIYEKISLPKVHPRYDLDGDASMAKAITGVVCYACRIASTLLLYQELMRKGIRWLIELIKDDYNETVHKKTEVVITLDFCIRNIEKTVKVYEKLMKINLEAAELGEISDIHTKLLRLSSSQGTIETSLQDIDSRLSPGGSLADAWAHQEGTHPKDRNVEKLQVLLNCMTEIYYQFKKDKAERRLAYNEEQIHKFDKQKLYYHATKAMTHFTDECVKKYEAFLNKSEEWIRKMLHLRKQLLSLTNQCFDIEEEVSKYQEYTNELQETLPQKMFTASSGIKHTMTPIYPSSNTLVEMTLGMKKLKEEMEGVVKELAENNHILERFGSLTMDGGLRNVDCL

The target of another assay is T3, FLT3 (Homo sapiens, UniProt P36888).
T3 sequence (P36888 27-993): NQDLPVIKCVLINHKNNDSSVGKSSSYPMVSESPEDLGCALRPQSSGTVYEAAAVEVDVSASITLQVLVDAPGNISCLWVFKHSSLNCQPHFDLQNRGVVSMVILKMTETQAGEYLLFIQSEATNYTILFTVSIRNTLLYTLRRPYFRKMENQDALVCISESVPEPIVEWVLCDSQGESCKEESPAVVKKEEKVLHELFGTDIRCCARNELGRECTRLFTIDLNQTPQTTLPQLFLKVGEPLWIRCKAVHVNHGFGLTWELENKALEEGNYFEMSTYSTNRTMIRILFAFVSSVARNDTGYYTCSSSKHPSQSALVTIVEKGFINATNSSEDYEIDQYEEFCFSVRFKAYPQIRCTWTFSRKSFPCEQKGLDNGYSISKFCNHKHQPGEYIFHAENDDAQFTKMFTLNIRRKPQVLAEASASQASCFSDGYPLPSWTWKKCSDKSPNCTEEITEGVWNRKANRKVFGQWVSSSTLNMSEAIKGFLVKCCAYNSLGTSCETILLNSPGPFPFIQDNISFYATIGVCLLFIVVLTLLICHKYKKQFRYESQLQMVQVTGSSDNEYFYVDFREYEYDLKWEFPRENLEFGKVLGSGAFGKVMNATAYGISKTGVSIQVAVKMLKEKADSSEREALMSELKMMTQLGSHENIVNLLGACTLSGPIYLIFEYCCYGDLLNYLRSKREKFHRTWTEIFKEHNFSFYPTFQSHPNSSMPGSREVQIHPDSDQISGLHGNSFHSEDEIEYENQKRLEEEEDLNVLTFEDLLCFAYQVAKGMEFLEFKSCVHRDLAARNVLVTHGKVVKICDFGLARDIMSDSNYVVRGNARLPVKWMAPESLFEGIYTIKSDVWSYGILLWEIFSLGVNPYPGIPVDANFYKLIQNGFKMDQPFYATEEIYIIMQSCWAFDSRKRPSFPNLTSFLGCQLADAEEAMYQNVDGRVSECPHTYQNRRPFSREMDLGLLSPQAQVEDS

Sequence of AMPK A1/B1/G1 (Q13131 whole entry): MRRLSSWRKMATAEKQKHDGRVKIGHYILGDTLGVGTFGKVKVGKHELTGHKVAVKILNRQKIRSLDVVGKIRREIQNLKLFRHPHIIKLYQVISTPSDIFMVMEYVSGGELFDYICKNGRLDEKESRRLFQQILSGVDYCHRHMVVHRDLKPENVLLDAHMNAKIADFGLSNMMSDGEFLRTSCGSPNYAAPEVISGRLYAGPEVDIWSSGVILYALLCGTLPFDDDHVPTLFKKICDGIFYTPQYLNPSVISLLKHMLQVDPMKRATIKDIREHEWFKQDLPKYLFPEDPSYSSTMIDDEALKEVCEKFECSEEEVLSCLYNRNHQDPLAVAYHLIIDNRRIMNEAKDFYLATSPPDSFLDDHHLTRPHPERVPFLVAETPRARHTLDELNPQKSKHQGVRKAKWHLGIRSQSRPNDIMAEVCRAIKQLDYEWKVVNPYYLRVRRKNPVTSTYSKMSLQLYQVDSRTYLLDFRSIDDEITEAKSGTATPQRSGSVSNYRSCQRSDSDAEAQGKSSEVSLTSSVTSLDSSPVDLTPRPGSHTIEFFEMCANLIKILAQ
Sequence of AMPK A1/B1/G1 (Q9Y478 whole entry partner): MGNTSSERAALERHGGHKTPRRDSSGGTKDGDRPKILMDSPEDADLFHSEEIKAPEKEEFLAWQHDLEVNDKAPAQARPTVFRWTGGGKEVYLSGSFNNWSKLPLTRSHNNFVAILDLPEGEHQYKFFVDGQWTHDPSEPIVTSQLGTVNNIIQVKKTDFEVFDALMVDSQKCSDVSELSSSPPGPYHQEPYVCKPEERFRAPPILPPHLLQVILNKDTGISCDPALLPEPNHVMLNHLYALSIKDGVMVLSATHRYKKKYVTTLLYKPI
Sequence of AMPK A1/B1/G1 (P54619 whole entry partner): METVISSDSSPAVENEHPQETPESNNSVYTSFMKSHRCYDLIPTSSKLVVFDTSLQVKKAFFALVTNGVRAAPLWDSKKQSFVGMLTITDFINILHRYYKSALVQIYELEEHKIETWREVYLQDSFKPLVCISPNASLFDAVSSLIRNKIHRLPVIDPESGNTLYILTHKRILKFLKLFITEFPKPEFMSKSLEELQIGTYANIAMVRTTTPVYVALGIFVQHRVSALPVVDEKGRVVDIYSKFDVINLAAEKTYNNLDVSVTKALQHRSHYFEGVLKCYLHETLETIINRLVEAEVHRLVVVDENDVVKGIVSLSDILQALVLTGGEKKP
Sequence of BTK (Q06187 whole entry): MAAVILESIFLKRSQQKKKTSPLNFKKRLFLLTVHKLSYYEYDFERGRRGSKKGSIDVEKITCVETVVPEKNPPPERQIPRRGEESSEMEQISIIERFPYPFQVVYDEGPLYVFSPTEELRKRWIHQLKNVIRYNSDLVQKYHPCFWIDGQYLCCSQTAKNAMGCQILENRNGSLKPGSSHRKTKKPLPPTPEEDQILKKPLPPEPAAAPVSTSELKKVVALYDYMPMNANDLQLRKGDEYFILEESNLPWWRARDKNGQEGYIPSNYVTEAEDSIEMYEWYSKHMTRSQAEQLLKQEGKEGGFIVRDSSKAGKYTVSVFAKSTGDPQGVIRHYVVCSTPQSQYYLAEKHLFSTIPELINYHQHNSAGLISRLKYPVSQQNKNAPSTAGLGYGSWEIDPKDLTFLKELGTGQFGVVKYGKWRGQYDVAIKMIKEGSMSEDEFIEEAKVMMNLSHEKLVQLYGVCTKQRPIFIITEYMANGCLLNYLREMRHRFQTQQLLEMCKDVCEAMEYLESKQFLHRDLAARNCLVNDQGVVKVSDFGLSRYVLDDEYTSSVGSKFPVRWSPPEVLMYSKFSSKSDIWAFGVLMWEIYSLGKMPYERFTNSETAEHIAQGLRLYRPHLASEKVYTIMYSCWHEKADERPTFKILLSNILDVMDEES
Sequence of NTRK2 (TRKB) (Q16620 32-822): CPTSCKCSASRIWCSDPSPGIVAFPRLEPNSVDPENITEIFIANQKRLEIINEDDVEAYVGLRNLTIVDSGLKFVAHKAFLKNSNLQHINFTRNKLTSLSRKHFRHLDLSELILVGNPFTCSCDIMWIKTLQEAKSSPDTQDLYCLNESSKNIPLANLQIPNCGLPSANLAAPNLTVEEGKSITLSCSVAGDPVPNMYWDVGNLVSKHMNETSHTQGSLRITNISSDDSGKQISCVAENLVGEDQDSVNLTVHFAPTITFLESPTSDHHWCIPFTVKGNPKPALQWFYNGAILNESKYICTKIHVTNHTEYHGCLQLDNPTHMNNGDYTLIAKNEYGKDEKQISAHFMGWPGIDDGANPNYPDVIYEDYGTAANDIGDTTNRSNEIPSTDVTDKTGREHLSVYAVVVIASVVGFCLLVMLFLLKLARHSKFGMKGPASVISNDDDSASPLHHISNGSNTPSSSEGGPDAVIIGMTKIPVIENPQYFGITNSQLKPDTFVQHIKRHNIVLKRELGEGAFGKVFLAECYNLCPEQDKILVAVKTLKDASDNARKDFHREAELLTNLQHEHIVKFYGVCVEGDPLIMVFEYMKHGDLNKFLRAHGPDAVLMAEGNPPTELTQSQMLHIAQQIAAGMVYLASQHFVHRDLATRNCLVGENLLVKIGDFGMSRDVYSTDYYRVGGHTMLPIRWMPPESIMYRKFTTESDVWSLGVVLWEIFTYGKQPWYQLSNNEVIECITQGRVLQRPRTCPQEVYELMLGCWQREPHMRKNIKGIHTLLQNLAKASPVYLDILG
Sequence of ABL1 (P00519 whole entry): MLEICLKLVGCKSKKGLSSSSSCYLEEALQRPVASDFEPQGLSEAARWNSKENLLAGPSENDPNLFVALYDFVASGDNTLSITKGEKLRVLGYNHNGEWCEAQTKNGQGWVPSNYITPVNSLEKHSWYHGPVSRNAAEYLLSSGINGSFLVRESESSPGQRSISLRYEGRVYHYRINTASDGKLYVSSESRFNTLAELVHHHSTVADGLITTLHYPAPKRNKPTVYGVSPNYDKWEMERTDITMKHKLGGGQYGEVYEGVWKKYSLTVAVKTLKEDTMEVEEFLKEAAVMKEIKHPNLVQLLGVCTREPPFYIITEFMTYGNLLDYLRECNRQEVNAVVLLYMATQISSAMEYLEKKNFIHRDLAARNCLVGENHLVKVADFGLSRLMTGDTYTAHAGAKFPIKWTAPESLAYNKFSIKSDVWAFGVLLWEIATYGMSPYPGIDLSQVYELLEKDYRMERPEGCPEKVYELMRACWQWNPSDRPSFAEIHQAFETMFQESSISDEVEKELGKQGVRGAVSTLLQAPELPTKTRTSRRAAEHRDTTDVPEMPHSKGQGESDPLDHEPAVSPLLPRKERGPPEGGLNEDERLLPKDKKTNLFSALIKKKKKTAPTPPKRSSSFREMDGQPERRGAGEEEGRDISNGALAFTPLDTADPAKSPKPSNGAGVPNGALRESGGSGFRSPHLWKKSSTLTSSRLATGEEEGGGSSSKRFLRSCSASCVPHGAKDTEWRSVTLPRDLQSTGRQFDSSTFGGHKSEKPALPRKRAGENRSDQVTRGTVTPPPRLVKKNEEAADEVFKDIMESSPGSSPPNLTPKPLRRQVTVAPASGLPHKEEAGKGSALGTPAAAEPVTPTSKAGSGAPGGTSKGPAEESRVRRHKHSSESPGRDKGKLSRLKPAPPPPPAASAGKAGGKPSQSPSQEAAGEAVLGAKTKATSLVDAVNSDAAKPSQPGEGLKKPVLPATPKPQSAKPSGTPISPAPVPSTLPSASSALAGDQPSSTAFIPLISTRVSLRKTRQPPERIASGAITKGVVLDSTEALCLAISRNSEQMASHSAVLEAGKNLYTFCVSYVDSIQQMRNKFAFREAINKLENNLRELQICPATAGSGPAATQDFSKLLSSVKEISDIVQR
Sequence of SRC (P12931 whole entry): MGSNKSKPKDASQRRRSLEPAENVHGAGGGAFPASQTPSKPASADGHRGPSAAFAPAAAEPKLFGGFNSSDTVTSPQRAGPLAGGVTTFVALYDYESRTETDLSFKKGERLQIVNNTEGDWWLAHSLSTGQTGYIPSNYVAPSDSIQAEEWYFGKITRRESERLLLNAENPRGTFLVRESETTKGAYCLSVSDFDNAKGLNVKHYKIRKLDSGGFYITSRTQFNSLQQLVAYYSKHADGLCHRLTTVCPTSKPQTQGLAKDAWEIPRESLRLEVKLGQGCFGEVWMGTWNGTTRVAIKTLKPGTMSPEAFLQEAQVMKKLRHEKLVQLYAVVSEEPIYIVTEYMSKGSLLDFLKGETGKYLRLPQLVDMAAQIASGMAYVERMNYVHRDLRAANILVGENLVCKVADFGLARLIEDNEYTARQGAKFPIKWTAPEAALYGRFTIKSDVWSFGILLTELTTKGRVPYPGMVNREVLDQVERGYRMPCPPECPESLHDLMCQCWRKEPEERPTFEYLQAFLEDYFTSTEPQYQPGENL
Description for ABL1: (§1) protein kinases at a compound concentration of 1 µM. Measurements were performed in duplicates
(§2) and at the particular apparent ATP KM of each individual kinase employing the activity based Z’LYTE®
(§3) kinase assay of the SelectScreen® Kinase Profiling Services (ThermoFisher Scientific).
(§4) kinases at a compound concentration of 1 µM. Measurements were performed in duplicates and at
(§5) the particular apparent ATP KM of each individual kinase employing the activity based Z’LYTE® kinase
(§6) assay of the SelectScreen® Kinase Profiling Services (ThermoFisher Scientific).
Description for ACVR1B (ALK4): as §1, §2, §3, §4, §5, §6
Description for AMPK A1/B1/G1: as §1, §2, §3, §4, §5, §6
Description for BTK: as §1, §2, §3, §4, §5, §6
Description for CDK1/cyclin B: as §1, §2, §3, §4, §5, §6
Description for FLT3: as §1, §2, §3, §4, §5, §6
Description for KIT: as §1, §2, §3, §4, §5, §6
Description for MET (cMet): as §1, §2, §3, §4, §5, §6
Description for NTRK2 (TRKB): as §1, §2, §3, §4, §5, §6
Description for PRKCA (PKC alpha): as §1, §2, §3, §4, §5, §6
Description for SRC: as §1, §2, §3, §4, §5, §6

In the case of `C=CC(=O)Nc1ccc2c(c1)n(C1CCN(Cc3ccc(-c4nc5cc[nH]c(=O)c5cc4-c4ccccc4)cc3)CC1)c(=O)n2C` [24b], the inhibition at 1 µM at ABL1 was 2%; on KIT it was 6%; on ACVR1B (ALK4), -1%; at PRKCA (PKC alpha) it was 23%; at SRC, 19%; on NTRK2 (TRKB), 0%. Moreover, the inhibition at 1 µM at MET (cMet) is 1%; on TBK1, 4%; on CDK1/cyclin B, 3%; on AMPK A1/B1/G1, 17%; on FLT3, 7%; at BTK, 12%.

As for `C=CC(=O)Nc1cccc(C(=O)NC2CCN(Cc3ccc(-c4nc5cc[nH]c(=O)c5cc4-c4ccccc4)cc3)CC2)c1` [30b], the inhibition at 1 µM is 3% on ABL1; 9% on KIT; 0% on ACVR1B (ALK4); 27% on PRKCA (PKC alpha); 17% on SRC; 8% on NTRK2 (TRKB). Moreover, the inhibition at 1 µM on MET (cMet) was 0%; at TBK1, 5%; at CDK1/cyclin B it was 3%; on AMPK A1/B1/G1, 46%; at FLT3 it was 14%; at BTK, 22%.

As to `C=CC(=O)Nc1cc(NC(=O)NC2CCN(Cc3ccc(-c4nc5cc[nH]c(=O)c5cc4-c4ccccc4)cc3)CC2)ccc1Cl` [compound 27], the inhibition at 1 µM on ABL1 was 3%; at KIT it was 9%; at ACVR1B (ALK4), -8%; on PRKCA (PKC alpha) it was 16%; at SRC it was 36%; at NTRK2 (TRKB), 1%. The inhibition at 1 µM at MET (cMet) came to 4%; at TBK1, 3%; at CDK1/cyclin B, 3%; at AMPK A1/B1/G1 it was 76%; on FLT3, 14%; on BTK, 10%.
